Data reported in PMC2753751 (Bioorganic & medicinal chemistry letters, 2009).

What was measured:
[1] = tested on: A549 human lung carcinoma cell line; assay: cytotoxicity with A549 cell monolayers; format: cell-based
Pneumocystis carinii [2] = conditions: read-out: IC50 P. carinii; P. carinii obtained from rat lungs; ref [15]; cited from earlier work
Pneumocystis carinii [3] = assay: in vitro inhibition of Pneumocystis carinii; format: cell-based; conditions: ratio of cytotoxic A549 IC50 to P. carinii IC50
[4] = tested on: Trypanosoma brucei rhodesiense KETRI 243; assay: in vitro inhibition of Trypanosoma brucei rhodesiense; format: cell-based; conditions: T.b. rhodesiense KETRI 243 versus T.b. brucei LAB 110
Pneumocystis = conditions: immunosuppressed mouse, 20 mg/kg and 40 mg/kg doses; ref [1]; cited from earlier work

With N=C(N)c1ccc(NC(=O)CCCCC(=O)Nc2cccc(C(=N)N)c2)cc1 [Compound 8] the “cytotoxicity against the A549 cell line (in words)” value (shortened to “cytotoxicity”) [1] was “very low cytoxicity”.

With N=C(N)c1ccc(NC(=O)CCCCCC(=O)Nc2ccc(C(=N)N)cc2)cc1 [Compound 9] the “cytotoxicity” value [1] was “very low cytoxicity”.

For N=C(N)c1ccc(NC(=O)CCCCCCC(=O)Nc2ccc(C(=N)N)cc2)cc1 [Compound 10], the “cytotoxicity” value [1] was “very low cytoxicity”.

In the case of N=C(N)c1ccc(NC(=O)CCCCCCCCC(=O)Nc2ccc(C(=N)N)cc2)cc1 [Compound 12], the “cytotoxicity” value [1] is reported as “very low cytoxicity”.

For N=C(N)c1ccc(OCCCCCOc2ccc(C(=N)N)cc2)cc1 [Pentamidine, reference compound], the IC50 (Pneumocystis carinii [2]) is given as 0.5 µM.

For “N,N′-bis[4-(aminoiminomethyl)phenyl] hexanediamide [Compound 4]”, the IC50 [1] is listed as 1190 µM, the “selectivity index for P. carinii (SIP.c)” value (Pneumocystis carinii [3]) is listed as 596,500 and the IC50 (Pneumocystis carinii [2]) is listed as 0.002 µM.

In the case of “N,N′-bis[4-(aminoiminomethyl)phenyl] pentanediamide, dihydrochloride salt [Compound 2]”, the “cytotoxicity” value [1] is reported as “very low cytoxicity”, the “selectivity index for P. carinii (SIP.c)” value (Pneumocystis carinii [3]) is reported as 758,667 and the “fold less active against the resistant strain” value [4] is reported as “about 11 fold”. The “reductions in organism burden” value (Pneumocystis) was > 1,000 fold and the IC50 (Pneumocystis carinii [2]) was 0.003 µM.
